Measurements as given in article PMC12042115 (mLife, 2025).
Read-outs that look alike come from different tables or passages of the source.

Tested on: wild‐type BCG cells
Format: cell-based, M. bovis BCG

O=C(Oc1ccc(Cl)cc1)c1ccc(N2CCOCC2)c([N+](=O)[O-])c1 [GDI‐5755]
ClpB upregulation (2‐day treated cells): 1.56 fold
detected proteome downregulated (2‐day treatment, 2×MIC): ~ 37.9%
ClpB upregulation (3‐day treated cells): 1.47 fold
Mean_Ratio (GDI5755_3d vs DMSO_3d) (3 d): 0.7
number of proteins accumulated (upregulated) (Day 2): 216 proteins
proteome remaining downregulated into the third day (Day 2 and Day 3): 29.1%
number of proteins accumulated (upregulated) (Day 3): 188 proteins
EthA upregulation (GDI‐5755‐treated cells): > 1.4 fold
Mean_Ratio GDI5755_3d: DMSO_3d (Table S5, BCG_0001 Chromosomal replication initiator protein DnaA): 0.8
Mean_Ratio GDI5755_3d: DMSO_3d (Table S5, BCG_0066 Fatty-acid-coa ligase fadD34): 0.7
Mean_Ratio GDI5755_3d: DMSO_3d (Table S5, BCG_0101c Serine hydroxy methyltransferase): 0.8
Mean_Ratio GDI5755_3d: DMSO_3d (Table S5, BCG_0207 MCE-family protein mce1B): 0.7
Mean_Ratio GDI5755_3d: DMSO_3d (Table S5, BCG_0208 MCE-family protein mce1C): 0.8
Mean_Ratio GDI5755_3d: DMSO_3d (Table S5, BCG_0209 MCE-family protein mce1D): 0.7
Mean_Ratio GDI5755_3d: DMSO_3d (Table S5, BCG_0210 MCE-family lipoprotein lprK): 0.7
Mean_Ratio GDI5755_3d: DMSO_3d (Table S5, BCG_0211 MCE-family protein mce1F): 0.7
Mean_Ratio GDI5755_3d: DMSO_3d (Table S5, BCG_0442 Probable fatty-acid-CoA ligase fadD30): 0.7
Mean_Ratio GDI5755_3d: DMSO_3d (Table S5, BCG_0495c Enoyl-CoA hydratase echA2): 0.5
Mean_Ratio GDI5755_3d: DMSO_3d (Table S5, BCG_0546c cmaA2): 0.7
Mean_Ratio GDI5755_3d: DMSO_3d (Table S5, BCG_0547c UPF0336 protein): 0.8
Mean_Ratio GDI5755_3d: DMSO_3d (Table S5, BCG_0591c Possible oxidoreductase): 0.8
Mean_Ratio GDI5755_3d: DMSO_3d (Table S5, BCG_0692c Methoxy mycolic acid synthase 3 mmaA3): 0.6
Mean_Ratio GDI5755_3d: DMSO_3d (Table S5, BCG_0693c Methoxy mycolic acid synthase 2 mmaA2): 0.7
Mean_Ratio GDI5755_3d: DMSO_3d (Table S5, BCG_1048 UTP--glucose-1-phosphate uridylyltransferase): 0.7
Mean_Ratio GDI5755_3d: DMSO_3d (Table S5, BCG_1203c Probable enoyl-CoA hydratase echA11): 0.7
Mean_Ratio GDI5755_3d: DMSO_3d (Table S5, BCG_1311c Uncharacterized protein): 0.8
Mean_Ratio GDI5755_3d: DMSO_3d (Table S5, BCG_1534 Macrolide-transport ATP-binding protein ABC transporter): 0.8
Mean_Ratio GDI5755_3d: DMSO_3d (Table S5, BCG_1579c Mycocerosic acid synthase-like polyketide synthase): 0.7
Mean_Ratio GDI5755_3d: DMSO_3d (Table S5, BCG_1619c Possible inv protein): 0.7
Mean_Ratio GDI5755_3d: DMSO_3d (Table S5, BCG_1699 Possible chalcone synthase pks10): 0.8
Mean_Ratio GDI5755_3d: DMSO_3d (Table S5, BCG_1896 Alanine and proline-rich secreted protein Apa): 0.6
Mean_Ratio GDI5755_3d: DMSO_3d (Table S5, BCG_1922c Chorismate mutase): 0.7
Mean_Ratio GDI5755_3d: DMSO_3d (Table S5, BCG_1923c Mycolyltransferase Ag85B): 0.7
Mean_Ratio GDI5755_3d: DMSO_3d (Table S5, BCG_1962 Probable lipase lipD): 0.6
Mean_Ratio GDI5755_3d: DMSO_3d (Table S5, BCG_2254 ER-bound oxygenase mpaB): 0.8
Mean_Ratio GDI5755_3d: DMSO_3d (Table S5, BCG_2260 Malonyl CoA-acyl carrier protein transacylase fabD): 0.7
Mean_Ratio GDI5755_3d: DMSO_3d (Table S5, BCG_2310 Probable aminotransferase): 0.8
Mean_Ratio GDI5755_3d: DMSO_3d (Table S5, BCG_2317 Cutinase): 0.7
Mean_Ratio GDI5755_3d: DMSO_3d (Table S5, BCG_2546c Putative peptidoglycan hydrolase): 0.8
Mean_Ratio GDI5755_3d: DMSO_3d (Table S5, BCG_2550 ERCC4 domain-containing protein): 0.7
Mean_Ratio GDI5755_3d: DMSO_3d (Table S5, BCG_2886c Possible penicillin-binding lipoprotein): 0.6
Mean_Ratio GDI5755_3d: DMSO_3d (Table S5, BCG_2977 Methyltransferase FkbM domain-containing protein): 0.7
Mean_Ratio GDI5755_3d: DMSO_3d (Table S5, BCG_3009c 3-isopropylmalate dehydratase large subunit): 0.6
Mean_Ratio GDI5755_3d: DMSO_3d (Table S5, BCG_3111 alcohol dehydrogenase adhD): 0.8
Mean_Ratio GDI5755_3d: DMSO_3d (Table S5, BCG_3296 LytR family transcriptional regulator): 0.8
Mean_Ratio GDI5755_3d: DMSO_3d (Table S5, BCG_3375 Possible acid phosphatase): 0.8
Mean_Ratio GDI5755_3d: DMSO_3d (Table S5, BCG_3658 Probable conserved lipoprotein lpqF): 0.8
Mean_Ratio GDI5755_3d: DMSO_3d (Table S5, BCG_3731c Possible chalcone synthase pks11): 0.7
Mean_Ratio GDI5755_3d: DMSO_3d (Table S5, BCG_3772 Lipid II isoglutaminyl synthase subunit MurT): 0.7
Mean_Ratio GDI5755_3d: DMSO_3d (Table S5, BCG_3866c Mycolyltransferase Ag85A): 0.8
Mean_Ratio GDI5755_3d: DMSO_3d (Table S5, BCG_3882c Trehalose-2-sulfate acyltransferase PapA2): 0.8
Mean_Ratio GDI5755_3d: DMSO_3d (Table S6, BCG_0130 decarboxylase): 1.5
Mean_Ratio GDI5755_3d: DMSO_3d (Table S6, BCG_0289c Heat stress-induced ribosome-binding protein A, acr2): 3.9
Mean_Ratio GDI5755_3d: DMSO_3d (Table S6, BCG_0347c Acetoacetate decarboxylase): 1.3
Mean_Ratio GDI5755_3d: DMSO_3d (Table S6, BCG_0389 Chaperone protein DnaK): 1.5
Mean_Ratio GDI5755_3d: DMSO_3d (Table S6, BCG_0390 Protein GrpE/HSP-70 cofactor): 1.4
Mean_Ratio GDI5755_3d: DMSO_3d (Table S6, BCG_0391 Chaperone protein DnaJ): 1.5
Mean_Ratio GDI5755_3d: DMSO_3d (Table S6, BCG_0422c Chaperone protein ClpB): 1.5
Mean_Ratio GDI5755_3d: DMSO_3d (Table S6, BCG_0463c Uncharacterized protein): 1.4
Mean_Ratio GDI5755_3d: DMSO_3d (Table S6, BCG_0726c Possible conserved membrane protein mmpS5): 1.4
Mean_Ratio GDI5755_3d: DMSO_3d (Table S6, BCG_0774 Possible protease IV sppA (Endopeptidase IV)): 1.4
Mean_Ratio GDI5755_3d: DMSO_3d (Table S6, BCG_0909 Cyclase): 1.3
Mean_Ratio GDI5755_3d: DMSO_3d (Table S6, BCG_0993 Bifunctional 2-hydroxyhepta-2,4-diene-1,7-dioate isomerase): 1.3
Mean_Ratio GDI5755_3d: DMSO_3d (Table S6, BCG_1028c Probable acetyl-/propionyl-coa carboxylase, accD2): 1.4
Mean_Ratio GDI5755_3d: DMSO_3d (Table S6, BCG_1037 Two-component sensor kinase MprB): 1.2
